The text below walks through data of patent US8153683B2, “Methods of treatment using a prodrug of an excitatory amino acid” (Eli Lilly and Company, priority 2002, dated 2012).

The data set can be described thus: In Vivo Exposure as Measured by Rat Plasma Concentration. The following applies: Fischer 344 male rats, sum of the concentrations at 0.5 and 1 hour or at 1 and 3 hour, LC/MS/MS. The procedure:
To study the in vivo exposure of compounds of Formula II following oral dosing of compounds of Formula I in comparison to compounds of Formula II, studies measuring the plasma concentrations of the respective compound of Formula II in rats are performed. Mature Fischer 344 male rats (190-270 gram) are obtained from Harlan Sprague-Dawley, Cumberland, Ind., USA, and acclimated in the study housing for 3 days. […] Blood samples are collected through orbital sinus or cardiac puncture (last time point) at 0.5 and 1 hour or, alternatively, at 1 and 3 hours. Plasma samples are stored at −20° C. in the presence of phenylmethylsulfonyl fluoride, a protease inhibitor, prior to analysis. Plasma samples and internal standard compounds are pretreated by solid phase extraction (SAX support, methanol/water/dilute acetic acid).
As shown in Tables 1A and 1B below, the plasma concentrations (ng/ml) of the respective compound of Formula II for each test compound are determined by LC/MS/MS and are presented as a sum of the concentrations at the 0.5 and 1 hour or, alternatively, at the 1 and 3 hour sample time points.

Consider `C[C@H](N)C(=O)N[C@@]1(C(=O)O)C[C@@H](F)[C@H]2[C@H](C(=O)O)[C@H]21.Cl` [Example 14, (1R,2S,4R,5R,6R)-2-(2′S-Amino-propionyl)amino-4-fluorobicyclo[3.1.0]hexane-2,6-dicarboxylic acid hydrochloride], for which the “Rat Exposure (ng/ml of (1R,2S,4R,5R,6R)-2-(2′S-Aminopropionyl)amino-4-fluorobicyclo[3.1.0]hexane-2,6-dicarboxylic acid hydrochloride)” value (following 5 mg/kg p.o.) is given as 5271 ng/ml (following 5 mg/kg p.o.). `N[C@@]1(C(=O)O)CS(=O)(=O)[C@H]2[C@H](C(=O)O)[C@H]21` [Non-prodrug form of Example 1, (1R,4S,5S,6S)-4-Amino-2,2-dioxo-2λ^6-thia-bicyclo[3.1.0]hexane-4,6-dicarboxylic acid]: the “Rat Exposure (ng/ml of (1R,4S,5S,6S)-4-(2′S-Aminopropionyl)amino-]-2,2-dioxo-2λ^6-thia-bicyclo[3.1.0.]hexane-4,6-dicarboxylic acid hydrochloride)” value (following 5 mg/kg p.o.) was 1521 ng/ml (following 5 mg/kg p.o.). On to `N[C@@]1(C(=O)O)C[C@@H](F)[C@H]2[C@H](C(=O)O)[C@H]21` [Non-prodrug form of Example 14, 1R,2S,4R,5R,6R-2-amino-4-fluorobicyclo[3.1.0]hexane-2,6-dicarboxylic acid], for which the “Rat Exposure (ng/ml of (1R,2S,4R,5R,6R)-2-(2′S-Aminopropionyl)amino-4-fluorobicyclo[3.1.0]hexane-2,6-dicarboxylic acid hydrochloride)” value is 1162 ng/ml (following 5 mg/kg p.o.) (following 5 mg/kg p.o.) and 1342 ng/ml (following 10 mg/kg p.o.) (following 10 mg/kg p.o.).
